# Earlier results, collected in publication PMC7395068, “The evolution of strategies to minimise the risk of human drug-induced liver injury (DILI) in drug discovery and development” (Archives of Toxicology, 2020).
# Read-outs that look alike come from different tables or passages of the source.
# What was measured:
# HepG2 cells [1] = conditions: cited from earlier work
# [2] = cited from earlier work
# human hepatocytes = conditions: In vitro Assay; ref Xu 2008; cited from earlier work
# [3] = test system: THLE or HepG2 cells, isolated mitochondria, BSEP; conditions: cited from earlier work
# [4] = cited from earlier work; remark: listed apart in the source
# HepG2 cells [5] = conditions: cited from earlier work; remark: listed apart in the source
# HepG2 cells [6] = conditions: In vitro Assay; ref Persson 2013; cited from earlier work
# hLiMTs = conditions: In vitro Assay; ref Proctor 2017; cited from earlier work
# rBsep = conditions: In vitro Assay; ref Dawson 2012; cited from earlier work
# [7] = test system: THLE-Null and THLE-3A4 cells; conditions: In vitro Assay; ref Gustafsson 2014; cited from earlier work
# [8] = test system: HepG2 cells, primary human hepatocytes; conditions: In vitro Assay; ref Garside 2014; cited from earlier work
# [9] = test system: HepG2 C3A spheroid, BSEP, Glu/Gal in HepG2 cells, bioactivation; conditions: In vitro Assay; ref Williams 2019; cited from earlier work
# [10] = ref Chen 2011; cited from earlier work
# PHH = conditions: In vitro Assay; ref Proctor 2017; cited from earlier work
# [11] = test system: isolated mouse liver mitochondria; conditions: In vitro Assay; ref Porceddu 2012; cited from earlier work
# PHH spheroids = conditions: In vitro Assay; ref Vorrink 2018; cited from earlier work
# [12] = In vitro Assay, ref Tolosa 2012
# [13] = In vitro Assay, ref O'Brien 2006
# [14] = assignment in Tolosa 2012, ref Tolosa 2012
compound,measurement,setting,value
OC[C@H]1O[C@@H](O[C@H]2[C@H](O)[C@@H](O)C(O)O[C@@H]2CO)[C@H](O)[C@@H](O)[C@H]1O (mixture of isomers) [lactose],Structural based (HCI),HepG2 cells [1],-VE
same,In vivo DILI,[2]; in vivo,-VE
"O=[N+]([O-])c1ccc(O)c([N+](=O)[O-])c1 [2,4 dinitrophenol]",Structural based (HCI),HepG2 cells [1]; [12],+VE
same,In vivo DILI,[2]; ref Tolosa 2012,+VE
CC(=O)Nc1cccc(O)c1 [3-acetamidophenol],Structural based (HCI),human hepatocytes,-VE
same,Structural based (HCI),HepG2 cells [1]; [12],-VE
same,In vivo DILI,[2]; ref O'Brien 2006,-VE
same,In vivo DILI,[2]; ref Tolosa 2012,-VE
same,In vivo DILI,[2]; ref Xu 2008,-VE
C#C[C@]1(O)CC[C@H]2[C@@H]3CCc4cc(O)ccc4[C@H]3CC[C@@]21C [17-a ethynylestradiol],Structural based (HCI),HepG2 cells [1],+VE
NCC[C@H](O)C(=O)N[C@@H]1C[C@H](N)[C@@H](O[C@H]2O[C@H](CN)[C@@H](O)[C@H](O)[C@H]2O)[C@H](O)[C@H]1O[C@H]1O[C@H](CO)[C@@H](O)[C@H](N)[C@H]1O [amikacin],Partition Hybrid HRM Score,"[3]; In vitro Assay, ref Aleo 2019",+VE
same,Ro2 Hybrid HRM Score,"[3]; In vitro Assay, ref Aleo 2019",+VE
same,"DILI +VE (5-8), DILI -VE (-4)",[4]; ref Chen 2016,-VE
same,DILI severity category,[4]; ref Chen 2016,vNo-DILI-Concern
same,Structural based (HCI),HepG2 cells [1]; [12],-VE
same,In vivo DILI,[2]; ref Aleo 2019,-VE
same,In vivo DILI,[2]; ref Tolosa 2012,+VE
CN1[C@@H]2CC[C@H]1C[C@@H](OC(=O)C(CO)c1ccccc1)C2 (some centres unmarked) [atropine],Structural based (HCI),HepG2 cells [1],+VE
CCN(CC)CCCC(C)Nc1ccnc2cc(Cl)ccc12 (centres unmarked) [chloroquine],Ro2 Hybrid HRM Score,[3],+VE
same,"DILI +VE (5-8), DILI -VE (-4)",[4]; in vivo,+VE
same,DILI severity category,[4]; in vivo,vLess-DILI-Concern
same,Structural based (HCI),HepG2 cells [5],+VE
same,Structural based (HCI),HepG2 cells [1],+VE
CC(C)(OO)c1ccccc1 [cumene hydroperoxide],Structural based (HCI),HepG2 cells [1]; [12],+VE
same,In vivo DILI,[2]; ref Tolosa 2012,+VE
C[C@@H]1C[C@@H]([C@H](O)CC2CC(=O)NC(=O)C2)C(=O)[C@@H](C)C1 [cycloheximide],Structural based (HCI),HepG2 cells [1],+VE
same,In vivo DILI,[2]; in vivo,+VE
C[S+](C)[O-] [dimethyl dulfoxide],Structural based (HCI),HepG2 cells [1]; [12],-VE
same,Cluser analysis,HepG2 cells [6],-VE
same,Structural based (HCI),HepG2 cells [6],-VE
same,In vivo DILI,[2]; ref Persson 2013,-VE
same,In vivo DILI,[2]; ref Tolosa 2012,-VE
NC(=O)OCC(COC(N)=O)c1ccccc1 [felbamate],hLiMTs ATP <100uM,hLiMTs,-VE
same,"DILI +VE (5-8), DILI -VE (-4)",[4]; ref Chen 2016,+VE
same,DILI severity category,[4]; ref Chen 2016,vMost-DILI-Concern
same,Inhibition of rBsep cutoff<1& cmax u>.2,rBsep,-VE
same,Inhibition of rBsep cutoff<3,rBsep,-VE
same,Structural based (HCI),human hepatocytes,-VE
same,Structural based (HCI),HepG2 cells [5]; [13],+VE
same,THLE-Null,[7],-VE
same,THLE-Null/3A4,[7],-VE
same,Cluster 1-6 +VE Assay,[8],-VE
same,Cluser analysis,HepG2 cells [6],-VE
same,Structural based (HCI),HepG2 cells [6],-VE
same,Bayesian Machine Learning,[9],+VE
same,In vivo DILI,[2]; […],+VE
same,In vivo DILI,[2]; ref Dawson 2012,+VE
same,In vivo DILI,[2]; ref Garside 2014,+VE
same,In vivo DILI,[2]; ref Gustafsson 2014,+VE
same,In vivo DILI,[2]; ref O'Brien 2006,+VE
same,In vivo DILI,[2]; ref Persson 2013,+VE
same,In vivo DILI,[2]; ref Proctor 2017,+VE
same,In vivo DILI,[2]; ref Williams 2019,+VE
same,In vivo DILI,[2]; ref Xu 2008,+VE
same,DILI Score (FDA) (1-8),[10],7
same,PHH ATP <100uM,PHH,-VE
N[C@H]1C(O)O[C@H](CO)[C@H](O)[C@@H]1O (some centres unmarked) [galactosamine],Structural based (HCI),HepG2 cells [1]; [12],-VE
same,In vivo DILI,[2]; ref O'Brien 2006,+VE
same,In vivo DILI,[2]; ref Tolosa 2012,+VE
C[C@H](CCC(=O)NCC(=O)O)[C@H]1CC[C@H]2[C@@H]3[C@H](O)C[C@@H]4C[C@H](O)CC[C@]4(C)[C@H]3CC[C@]12C [glycochenodeoxycholate],"Structural based (HCI), In vitro Assay","HepG2 cells [1]; HepG2 HCI, ref Tolosa 2012",+VE
same,In vivo DILI,[2]; [14],+VE
CC[C@H](C)C(=O)O[C@H]1C[C@@H](C)C=C2C=C[C@H](C)[C@H](CC[C@@H]3C[C@@H](O)CC(=O)O3)[C@H]21 [lovastatin],in vitro data EC2<=1x Cmax,[11],-VE
same,in vitro data EC20<=2uM,[11],+VE
same,Structural based (HCI),human hepatocytes,-VE
same,Structural based (HCI),HepG2 cells [5]; [13],-VE
same,Structural based (HCI),HepG2 cells [1]; [12],+VE
CCOC(=O)CC(SP(=S)(OC)OC)C(=O)OCC (centres unmarked) [malathion],"Structural based (HCI), In vitro Assay","HepG2 cells [1]; HepG2 HCI, ref Tolosa 2012",+VE
same,In vivo DILI,[2]; [14],+VE
CNCCCC12CCC(c3ccccc31)c1ccccc12 [maprotiline],Partition Hybrid HRM Score,"[3]; In vitro Assay, ref Aleo 2019",+VE
same,Ro2 Hybrid HRM Score,"[3]; In vitro Assay, ref Aleo 2019",+VE
same,"DILI +VE (5-8), DILI -VE (-4)",[4]; ref Chen 2016,-VE
same,DILI severity category,[4]; ref Chen 2016,Ambiguous DILI-concern
same,Structural based (HCI),human hepatocytes,-VE
same,Structural based (HCI),HepG2 cells [1]; [12],+VE
same,In vivo DILI,[2]; […],-VE
same,In vivo DILI,[2]; ref Tolosa 2012,+VE
same,In vivo DILI,[2]; ref Xu 2008,-VE
[Cl][Hg][Cl] [mercury ii chloride],"Structural based (HCI), In vitro Assay","HepG2 cells [1]; HepG2 HCI, ref Tolosa 2012",+VE
same,In vivo DILI,[2]; [14],+VE
CN(CCCC(=O)c1cccnc1)N=O [nnk],"Structural based (HCI), In vitro Assay","HepG2 cells [1]; HepG2 HCI, ref Tolosa 2012",+VE
same,In vivo DILI,[2]; [14],+VE
C[n+]1ccc(-c2cc[n+](C)cc2)cc1 [paraquat],"Structural based (HCI), In vitro Assay","HepG2 cells [1]; HepG2 HCI, ref Tolosa 2012",+VE
same,In vivo DILI,[2]; [14],+VE
Oc1c(Cl)c(Cl)c(Cl)c(Cl)c1Cl [pentachlorophenol],Structural based (HCI),HepG2 cells [1],+VE
same,In vivo DILI,[2]; in vivo,+VE
CCCCOCCOCCOCc1cc2c(cc1CCC)OCO2 [piperonyl butoxide],"Structural based (HCI), In vitro Assay","HepG2 cells [1]; HepG2 HCI, ref Tolosa 2012",+VE
same,In vivo DILI,[2]; [14],+VE
CCCC(CCC)C(=O)O [sodium valproate],"Structural based (HCI), In vitro Assay","HepG2 cells [1]; HepG2 HCI, ref Tolosa 2012",+VE
OC[C@@H](O)[C@@H](O)[C@H](O)[C@@H](O)CO [sorbitol],"DILI +VE (5-8), DILI -VE (-4)",[4]; ref Chen 2016,-VE
same,DILI severity category,[4]; ref Chen 2016,vNo-DILI-Concern
same,Structural based (HCI),human hepatocytes,-VE
same,Structural based (HCI),HepG2 cells [1]; [12],-VE
same,In vivo DILI,[2]; ref O'Brien 2006,-VE
same,In vivo DILI,[2]; ref Tolosa 2012,-VE
same,In vivo DILI,[2]; ref Xu 2008,-VE
C[C@H](CCC(=O)NCCS(=O)(=O)O)[C@H]1CC[C@H]2[C@@H]3CC[C@@H]4C[C@H](O)CC[C@]4(C)[C@H]3CC[C@]12C [taurolithocholate],"Structural based (HCI), In vitro Assay","HepG2 cells [1]; HepG2 HCI, ref Tolosa 2012",+VE
same,In vivo DILI,[2]; [14],+VE
CC(C)(C)OO [tert-butyl hydroperoxide],"Structural based (HCI), In vitro Assay",HepG2 cells [1],+VE
same,In vivo DILI,[2]; in vivo,+VE
CC(=N)S [thioacetamide],Structural based (HCI),human hepatocytes,-VE
same,Structural based (HCI),HepG2 cells [1]; [12],-VE
same,In vivo DILI,[2]; ref O'Brien 2006,+VE
same,In vivo DILI,[2]; ref Tolosa 2012,+VE
same,In vivo DILI,[2]; ref Xu 2008,+VE
CCN(CC)CCOc1ccc2c(c1)C(=O)c1cc(OCCN(CC)CC)ccc1-2 [tilorone],"Structural based (HCI), In vitro Assay","HepG2 cells [1]; HepG2 HCI, ref Tolosa 2012",+VE
same,In vivo DILI,[2]; [14],+VE
CC(c1cc2ccccc2s1)N(O)C(N)=O (centres unmarked) [zileuton],hLiMTs ATP <100uM,hLiMTs,-VE
same,"DILI +VE (5-8), DILI -VE (-4)",[4]; ref Chen 2016,+VE
same,DILI severity category,[4]; ref Chen 2016,vMost-DILI-Concern
same,Inhibition of rBsep cutoff<1& cmax u>.2,rBsep,-VE
same,Inhibition of rBsep cutoff<3,rBsep,-VE
same,Structural based (HCI),human hepatocytes,+VE
same,Structural based (HCI),HepG2 cells [5]; [13],+VE
same,THLE-Null,[7],-VE
same,THLE-Null/3A4,[7],-VE
same,Cluster 1-6 +VE Assay,[8],-VE
same,Cluser analysis,HepG2 cells [6],-VE
same,Structural based (HCI),HepG2 cells [6],+VE
same,Bayesian Machine Learning,[9],+VE
same,In vivo DILI,[2]; […],+VE
same,In vivo DILI,[2]; ref Dawson 2012,+VE
same,In vivo DILI,[2]; ref Garside 2014,+VE
same,In vivo DILI,[2]; ref Gustafsson 2014,+VE
same,In vivo DILI,[2]; ref O'Brien 2006,+VE
same,In vivo DILI,[2]; ref Persson 2013,+VE
same,In vivo DILI,[2]; ref Proctor 2017,+VE
same,In vivo DILI,[2]; ref Vorrink 2018,+VE
same,In vivo DILI,[2]; ref Williams 2019,+VE
same,In vivo DILI,[2]; ref Xu 2008,+VE
same,DILI Score (FDA) (1-8),[10],5
same,PHH ATP <100uM,PHH,-VE
same,hLiMTs ATP <20 x Cmax,PHH spheroids,-VE
gentamycin,in vitro data EC2<=1x Cmax,[11],+VE
same,in vitro data EC20<=2uM,[11],+VE
same,Structural based (HCI),HepG2 cells [5]; [13],+VE
same,Structural based (HCI),HepG2 cells [1]; [12],-VE
same,In vivo DILI,[2]; […],-VE
same,In vivo DILI,[2]; ref O'Brien 2006,-VE
same,In vivo DILI,[2]; ref Porceddu 2012,+VE
same,In vivo DILI,[2]; ref Tolosa 2012,-VE
